Data taken from patent publication US20230263822A1, “MODULATION OF FACTOR 11 EXPRESSION” (Ionis Pharmaceuticals, Inc., priority 2008, published 2023).
pIC50: −log10 of the molar value.

Tests used:
[1] = tested on: human Factor 11 mRNA; test: Dose-dependent inhibition of human Factor 11 in HepG2 cells, lipofectin 9.375-75 nM (Example 4); assay type: cell-based
Outline: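 HepG2 cells transfected via lipofectin with antisense oligonucleotide at 9.375, 18.75, 37.5 or 75 nM for about 16 h. Factor 11 mRNA quantified by real-time RT-PCR (primer probe set RTS 2966) and normalized to total RNA (RIBOGREEN). Results expressed as percent inhibition versus untreated cells.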

[2] = tested on: human Factor 11 mRNA; test: Antisense inhibition of human Factor 11 in HepG2 cells, electroporation, 8,000 nM (Example 30); assay type: cell-based; details: electroporation, 8,000 nM antisense oligonucleotide
Outline: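 HepG2 cells electroporated with 8,000 nM 5-10-5, 5-8-5 or 6-8-6 MOE gapmers (phosphorothioate, 5-methylcytidine), ~24 h. Factor 11 mRNA quantified by qRT-PCR, normalised to RIBOGREEN total RNA. Reported as percent inhibition versus untreated cells.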

[3] = tested on: human Factor 11 mRNA; test: Antisense inhibition of human Factor 11 in HepG2 cells by microwalk gapmers, lipofectin, 75 nM (Example 3); assay type: cell-based; details: HepG2 cells, lipofectin, gapmers targeted to nucleobases 1275 to 1318 of SEQ ID NO: 1
Outline: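 HepG2 cells (10,000/well) were transfected via lipofectin with 75 nM 20-mer MOE gapmers (phosphorothioate, 5-methyl-C) for about 24 h. Factor 11 mRNA was measured by qRT-PCR, normalized to RIBOGREEN total RNA, and given as percent inhibition versus untreated cells.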

[4] = Tolerability in Sprague-Dawley rats: kidney function, urine protein/creatinine (Example 35); details: Sprague Dawley rats
Procedure: A control group of four Sprague Dawley rats was injected subcutaneously with PBS twice per week for 6 weeks. Body weight measurements were taken before and throughout the treatment period. Urine samples were taken before the start of treatment. Three days after the last dose, urine samples were taken and the rats were sacrificed. Organ weights were measured and blood was collected for further analysis.
To evaluate the effect of kidney function, plasma concentrations of blood urea nitrogen (BUN) and creatinine were measured using an automated clinical chemistry analyzer (Hitachi Olympus AU400e, Melville, N.Y.).

Question: With “416864 (antisense GGCAGCGGACGGCATTGGTG; 5-10-5 gapmer, further chemistry not given here) [compound 416864]” as the substance, how does the pIC50 [1] read?
Answer: Its pIC50 is 7.59.

Question: What about the “percent inhibition of Factor 11 at 9.375 nM” value ([1]; 9.375 nM, relative to untreated control cells) of the same substance?
Answer: Its value is 18%.

Question: And the “percent inhibition of Factor 11 at 18.75 nM” value ([1]; 18.75 nM, relative to untreated control cells)?
Answer: Its value is 43%.

Question: What about the “percent inhibition of Factor 11 at 37.5 nM” value ([1]; 37.5 nM, relative to untreated control cells) of the same substance?
Answer: The value was 62%.

Question: What about the “percent inhibition of Factor 11 at 75 nM” value ([1]; 75 nM, relative to untreated control cells) of the same substance?
Answer: The value was 78%.

Question: What about the “Percent inhibition of human Factor 11 mRNA levels” value [2] of the same substance?
Answer: Its value is 88%.

Question: What about the “% inhibition” value [3] of the same substance?
Answer: Its value is 93%.

Question: What about the Urine protein/creatinine ratio ([4]; After treatment, 50 mg/kg s.c. twice per week for 6 weeks) of the same substance?
Answer: Its Urine protein/creatinine ratio is 4.0.

Question: And the Urine protein/creatinine ratio ([4]; Before antisense oligonucleotide treatment)?
Answer: The Urine protein/creatinine ratio was 1.2.
